Assays:
Experiment in all cases: post-emergence greenhouse herbicidal test
Type in all cases: in vivo
Conditions in all cases: application rate 250 g/ha, 100 = complete destruction, 0 = no damage
[1] = test system: CHEAL (Chenopodium album)
Text: (§1) The seeds of the test plants were sown separately for each species. For the post-emergence treatment, the test plants were first grown to a height of 3 to 15 cm, depending on the plant habit, and only then treated with the active ingredients which had been suspended or emulsified in water. For this purpose, the test plants were either sown directly and grown in the same containers, or they were first grown separately as seedlings and transplanted into the test containers a few days prior to treatment. Depending on the species, the plants were kept at 10-25° C. or 20-25° C., respectively. The test period extended over 2 to 4 weeks. During this time, the plants were tended, and their response to the individual treatments was evaluated. Evaluation was carried out using a scale from 0 to 100. 100 means no emergence of the plants, or complete destruction of at least the aerial moieties, and 0 means no damage, or normal course of growth. A good herbicidal activity is given at values of at least 70 and a very good herbicidal activity is given at values of at least 85. At an application rate of 250 g/ha the following compounds were tested in post-emergence tests against: ECHCG (Echinocloa crus-galli) AMARE (Amaranthus retroflexus) CHEAL (Chenopodium album)

[2] = test system: ECHCG (Echinocloa crus-galli)
Text: as §1

[3] = test system: AMARE (Amaranthus retroflexus)
Text: as §1

Cn1nnnc1NC(=O)c1cc(Cl)cc(NC(=O)N(C2CC2)C2CC2)c1Cl [Example 1, 2,5-dichloro-3-(dicyclopropylcarbamoylamino)-N-(1-methyltetrazol-5-yl)benzamide]
>80: herbicidal activity against CHEAL (scale from 0 to 100) [1] | herbicidal activity against ECHCG (scale from 0 to 100) [2] | herbicidal activity against AMARE (scale from 0 to 100) [3]

CN(CC(F)(F)F)C(=O)Nc1cc(Cl)cc(C(=O)Nc2nnnn2C)c1Cl [Example 2, 2,5-dichloro-3-[(2,2,2-trifluoroethyl)(methyl)carbamoylamino]-N-(1-methyltetrazol-5-yl)benzamide]
>80: herbicidal activity against CHEAL (scale from 0 to 100) [1] | herbicidal activity against ECHCG (scale from 0 to 100) [2] | herbicidal activity against AMARE (scale from 0 to 100) [3]
